Source: patent publication US3963727A, “1,2 Disubstituted benzimidazole derivatives” (Daiichi Seiyaku Co., Ltd., priority 1975, dated 1976)
“Also recorded” adds a separate entry of the source. Read-outs that look alike come from different tables or passages of the source.

Columns and labels:
[1] = Catalepsy Test in Rats; details: rat, in vivo, po
Protocol: (§1) After medication, both legs of the rats were put on a horizontal metal bar, 12 cm apart from the floor, and the rats were forced to stand on hind legs. Observation of rat behavior was made 1, 2, 4, 6, 8, 10, 12 and 24 hours later.

[2] = system: catalepsy; assay: Catalepsy Test in Rats; details: for Potency Ratio: catalepsy ED50, relative to haloperidol = 1.0; for dissociation between the dose effective against methamphetamine and the dose inducing catalepsy / catalepsy: rat, oral, in words; for dissociation between the dose effective against methamphetamine and the dose inducing catalepsy: comparison of anti-methamphetamine and catalepsy tests
Protocol: as §1

[3] = system: stereotyped behavior induced with methamphetamine hydrochloride; assay: Anti-methamphetamine Test in Rats; details: for ED50: Rattus norvegicus, po, read-out: ED50 and Its Confidence Limit; for Potency Ratio: anti-methamphetamine ED50, relative to haloperidol = 1.0; for suppressing methamphetamine-induced stereotypy: rat, oral, in words
[4] = system: conditioned avoidance (avoidance failure); assay: Conditioned Avoidance Test by Shuttle Box; type: in vivo, rats of Wistar strain (male); details: for ED50: read-out: ED50 and Its Confidence Limit; for Potency Ratio: conditioned avoidance ED50, relative to haloperidol = 1.0
Source text: Use was made of a shuttle box consisted of two chambers divided by a plate with a square hole. The floor of each chamber was made of steel-rod grid which can be charged electrically. The whole apparatus was maintained in a sound proof room. The training schedule was as follows. Each trial was initiated by supplying the sound of buzzer as conditioned stimulus for 3 seconds. Unless the rats escaped to another compartment […] thereafter, the grid floor was electrified for 4 seconds as unconditioned stimulus. Each rat was trained for more than 2 weeks with a daily session of 30 trials at an interval of 60 seconds.
Six rats per group were subjected to 10 consecutive trails 1, 2, 4, 6, 8 and 10 hours after medication, respectively. In this case, a 3-second interval was taken between the termination of the conditioned stimulus and the onset of the unconditioned one. ED50 values at each time were calculated from the average percentages of avoidance failure.

[5] = system: gnawing (stereotyped behavior induced by apomorphine); assay: Anti-apomorphine Test in Rats; type: in vivo, rats of Wistar strain (male); details: for ED50: read-out: ED50 and Its Confidence Limit; for Potency Ratio: anti-apomorphine ED50, relative to haloperidol = 1.0
Protocol: Six male rats of Wistar strain weighing 120 to 200 g were used at each dosage level. […] The effect against apomorphine was taken as positive when gnawing behavior was not noticed during the observation period of 1 minute. ED50 was calculated from the dose inhibition percet relationship.

[6] = system: catalepsy; details: rat, in vivo
Protocol: as §1

[7] = in vivo; details: rat, po
Protocol: as §1

[8] = rat, oral, apomorphine 1.25 mg/kg i.v., time of maximum effect 2 hrs

O=C(CCCN1CCC(n2c(O)nc3ccccc32)CC1)c1ccc(F)cc1 [Benperidol, reference compound]
ED50 at 8 h [1]: 0.92 mg/kg | Potency Ratio [2]: 0.95 | dissociation between the dose effective against methamphetamine and the dose inducing catalepsy [2]: exhibit both the effects at almost the same dose level; also recorded: exhibit simultaneously both desired and undesired side-effects to almost the same extent at their effective dosages | ED50 ([3]; 2 h): 0.44 mg/kg | Potency Ratio [3]: 1.1 | ED50 ([4]; Rattus norvegicus, po, 4 h): 0.81 mg/kg | Potency Ratio [4]: 0.7 | ED50 ([5]; Rattus norvegicus, po, 1 h): 0.62 mg/kg | Potency Ratio [5]: 1.1

O=C(CCCN1CCC(n2c(S)nc3ccccc32)CC1)c1ccc(F)cc1 [Compound A, 1-[1-(3-(4-fluorobenzoyl)propyl)-4-piperidyl]-2-mercaptobenzimidazole]
ED50 at 10 h [1]: 0.25 mg/kg | Potency Ratio [2]: 3.5 | dissociation between the dose effective against methamphetamine and the dose inducing catalepsy [2]: marked dissociation | catalepsy [2]: produce catalepsy only in higher doses | ED50 ([3]; 2 h): 0.054 mg/kg | Potency Ratio [3]: 8.9 | suppressing methamphetamine-induced stereotypy [3]: highly effective in suppressing methamphetamine-induced stereotypy | Potency Ratio [4]: 8.8 | ED50 ([4]; shuttle box, rat, oral, time of maximum effect 6 hrs): 0.06 mg/kg | Potency Ratio [5]: 7.5 | ED50 [5, 8]: 0.095 mg/kg

CSc1nc2ccccc2n1C1CCN(CCCC(=O)c2ccc(F)cc2)CC1 [Compound B, 1-[1-(3-(4-fluorobenzoyl)propyl)-4-piperidyl]-2-methylmercaptobenzimidazole]
ED50 at 10 h [1]: 0.68 mg/kg | Potency Ratio [2]: 1.3 | dissociation between the dose effective against methamphetamine and the dose inducing catalepsy [2]: marked dissociation | catalepsy [2]: produce catalepsy only in higher doses | ED50 ([3]; 1 h): 0.17 mg/kg | Potency Ratio [3]: 2.8 | suppressing methamphetamine-induced stereotypy [3]: highly effective in suppressing methamphetamine-induced stereotypy | Potency Ratio [4]: 1.6 | ED50 ([4]; shuttle box, rat, oral, time of maximum effect 4 hrs): 0.34 mg/kg | Potency Ratio [5]: 1.7 | ED50 [5, 8]: 0.41 mg/kg

O=C(CCCN1CCC(O)(c2ccc(Cl)cc2)CC1)c1ccc(F)cc1 [Haloperidol, reference compound]
dissociation between the dose effective against methamphetamine and the dose inducing catalepsy [2]: exhibit both the effects at almost the same dose level; also recorded: exhibit simultaneously both desired and undesired side-effects to almost the same extent at their effective dosages | ED50 ([3]; 1 h): 0.48 mg/kg | ED50 ([4]; Rattus norvegicus, po, 4 h): 0.53 mg/kg | ED50 ([5]; Rattus norvegicus, po, 2 h): 0.71 mg/kg | Potency Ratio [6]: 1.0 | ED50 at 8 h [7]: 0.88 mg/kg
